Calls of active or inactive are those of the source.
Columns and labels:
[1] = Late stage assay provider results from the probe development effort to identify selective inhibitors of heat shock protein 90 (HSP90): Absorbance-based cell proliferation assay in SKBR3 cells.; type: functional; details: SK-BR-3
[2] = Late stage assay provider results from the probe development effort to identify selective inhibitors of heat shock protein 90 (HSP90): Absorbance-based cell proliferation assay in MCF7 cells.; type: functional
[3] = cells; details: A549
[4] = inhibitors of HIV Env-driven cell fusion, dose response, cherry-pick (AID 652057); type: functional, cell-based
[5] = cells; details: HEK293
[6] = molecular target: T1, Scavenger receptor class B member 1 (Mus musculus, UniProt Q61009); assay: inhibitors of SR-BI-mediated HDL uptake, dose response, cell-based, ldlA[mSR-BI] CHO, DiI fluorescence, dry powder, set 10 (AID 624029); type: functional
T1 sequence (Q61009 whole entry): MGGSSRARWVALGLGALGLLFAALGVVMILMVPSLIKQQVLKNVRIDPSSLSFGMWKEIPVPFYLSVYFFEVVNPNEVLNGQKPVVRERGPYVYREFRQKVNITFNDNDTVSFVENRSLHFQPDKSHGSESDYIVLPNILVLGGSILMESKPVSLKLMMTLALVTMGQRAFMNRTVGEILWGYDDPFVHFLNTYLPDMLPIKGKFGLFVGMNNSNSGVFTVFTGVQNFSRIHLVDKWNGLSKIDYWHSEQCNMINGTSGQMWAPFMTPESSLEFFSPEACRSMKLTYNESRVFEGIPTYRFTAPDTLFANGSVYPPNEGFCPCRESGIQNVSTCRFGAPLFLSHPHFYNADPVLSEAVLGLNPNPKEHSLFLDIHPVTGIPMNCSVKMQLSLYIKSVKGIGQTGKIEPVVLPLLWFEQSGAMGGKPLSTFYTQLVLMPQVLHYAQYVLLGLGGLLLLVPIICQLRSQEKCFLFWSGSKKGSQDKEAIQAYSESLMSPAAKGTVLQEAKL

[7] = cytotoxicity in ldlA[mSR-BI] CHO cells, dose response, cytotoxicity control for SR-BI HDL uptake inhibitor project, cell-based, CellTiter-Glo, 24 h, powder samples, set 7 (AID 624026); type: functional
[8] = A549 cell cytotoxicity, dose response, cytotoxicity control, 24 h, CellTiter-Glo luminescence, cherry-picks (AID 1053115); type: functional, cell-based; details: A549, 24 h
[9] = cells; type: functional, cell-based
[10] = molecular target: T2, Nuclear receptor subfamily 0 group B member 1 (Homo sapiens, UniProt P51843); type: functional, cell-based;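 note: HEK293T cells transfected with SF-1 and DAX-1 plus StAR promoter luciferase reporter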
T2 sequence (P51843 whole entry): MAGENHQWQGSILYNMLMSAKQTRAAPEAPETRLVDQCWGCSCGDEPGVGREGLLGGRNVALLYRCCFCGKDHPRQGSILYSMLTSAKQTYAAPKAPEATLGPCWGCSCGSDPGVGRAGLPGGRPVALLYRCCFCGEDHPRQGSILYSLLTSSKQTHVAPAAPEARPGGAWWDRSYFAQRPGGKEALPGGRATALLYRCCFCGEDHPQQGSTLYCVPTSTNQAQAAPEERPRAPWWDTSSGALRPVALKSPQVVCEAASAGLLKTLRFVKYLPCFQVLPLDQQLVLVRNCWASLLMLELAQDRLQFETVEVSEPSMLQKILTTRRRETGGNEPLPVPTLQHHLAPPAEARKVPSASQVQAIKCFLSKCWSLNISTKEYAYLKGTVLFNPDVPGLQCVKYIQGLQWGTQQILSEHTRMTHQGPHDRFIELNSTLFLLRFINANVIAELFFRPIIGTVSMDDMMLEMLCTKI

[11] = A375 melanoma cell cytotoxicity, dose response, counter-screen for MITF inhibitor project, CellTiter-Glo luminescence, dry powder, set 2 (AID 624489); type: functional, cell-based; details: A-375;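 note: actives are compounds lowering A375 viability meaning general cytotoxicity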
[12] = A375 melanoma cell viability loss, dose response, counter-screen for MITF inhibitor project, CellTiter-Glo luminescence, dry powder, set 4 (AID 624364); type: functional, cell-based; details: A-375;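 note: A375 melanoma cells are MITF independent so this is a counter screen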
[13] = Counterscreen for activators of the function of SWI/SNF related, matrix associated, actin dependent regulator of chromatin, subfamily a, member 2 (SMARCA2, BRM): Luminescence-based cell-based high throughput dose response assay to identify non-selective compounds using the VP16 reporter assay.; type: functional
[14] = molecular target: T3, Polyadenylate-binding protein 1 (Homo sapiens, UniProt P11940); assay: PABP1 MLLE–PAM2 interaction inhibitors, dose response, miRNA deadenylation inhibitor project, biochemical, fluorescence polarization, Cy5-PAM2 peptide, secondary (AID 602260); type: functional; details: read-out: IC50_Mean
T3 sequence (P11940 whole entry): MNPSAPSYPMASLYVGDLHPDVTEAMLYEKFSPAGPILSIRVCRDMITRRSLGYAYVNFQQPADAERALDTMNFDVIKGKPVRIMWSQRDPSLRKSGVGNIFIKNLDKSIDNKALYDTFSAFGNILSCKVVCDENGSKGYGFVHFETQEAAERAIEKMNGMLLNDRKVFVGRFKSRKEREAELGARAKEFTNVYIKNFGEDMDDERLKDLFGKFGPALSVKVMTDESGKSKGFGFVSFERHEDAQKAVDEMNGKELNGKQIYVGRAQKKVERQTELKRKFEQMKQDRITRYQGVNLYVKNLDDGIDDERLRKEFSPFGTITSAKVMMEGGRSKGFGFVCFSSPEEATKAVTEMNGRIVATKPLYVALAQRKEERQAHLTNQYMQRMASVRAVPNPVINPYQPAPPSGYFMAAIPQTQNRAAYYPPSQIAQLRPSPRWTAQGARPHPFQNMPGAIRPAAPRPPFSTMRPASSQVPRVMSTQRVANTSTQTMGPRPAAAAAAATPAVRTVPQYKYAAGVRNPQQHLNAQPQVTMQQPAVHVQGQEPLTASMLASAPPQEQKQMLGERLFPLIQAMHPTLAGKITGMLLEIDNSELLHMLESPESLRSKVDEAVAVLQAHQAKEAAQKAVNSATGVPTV

[15] = molecular target: SWI/SNF-related matrix-associated actin-dependent regulator of chromatin subfamily A member 2 (Homo sapiens, UniProt P51531); assay: Luminescence-based cell-based high throughput dose response assay to identify activators of the function of SWI/SNF related, matrix associated, actin dependent regulator of chromatin, subfamily a, member 2 (SMARCA2, BRM).; type: functional
SWI/SNF-related matrix-associated actin-dependent regulator of chromatin subfamily A member 2, sequence (P51531 whole entry): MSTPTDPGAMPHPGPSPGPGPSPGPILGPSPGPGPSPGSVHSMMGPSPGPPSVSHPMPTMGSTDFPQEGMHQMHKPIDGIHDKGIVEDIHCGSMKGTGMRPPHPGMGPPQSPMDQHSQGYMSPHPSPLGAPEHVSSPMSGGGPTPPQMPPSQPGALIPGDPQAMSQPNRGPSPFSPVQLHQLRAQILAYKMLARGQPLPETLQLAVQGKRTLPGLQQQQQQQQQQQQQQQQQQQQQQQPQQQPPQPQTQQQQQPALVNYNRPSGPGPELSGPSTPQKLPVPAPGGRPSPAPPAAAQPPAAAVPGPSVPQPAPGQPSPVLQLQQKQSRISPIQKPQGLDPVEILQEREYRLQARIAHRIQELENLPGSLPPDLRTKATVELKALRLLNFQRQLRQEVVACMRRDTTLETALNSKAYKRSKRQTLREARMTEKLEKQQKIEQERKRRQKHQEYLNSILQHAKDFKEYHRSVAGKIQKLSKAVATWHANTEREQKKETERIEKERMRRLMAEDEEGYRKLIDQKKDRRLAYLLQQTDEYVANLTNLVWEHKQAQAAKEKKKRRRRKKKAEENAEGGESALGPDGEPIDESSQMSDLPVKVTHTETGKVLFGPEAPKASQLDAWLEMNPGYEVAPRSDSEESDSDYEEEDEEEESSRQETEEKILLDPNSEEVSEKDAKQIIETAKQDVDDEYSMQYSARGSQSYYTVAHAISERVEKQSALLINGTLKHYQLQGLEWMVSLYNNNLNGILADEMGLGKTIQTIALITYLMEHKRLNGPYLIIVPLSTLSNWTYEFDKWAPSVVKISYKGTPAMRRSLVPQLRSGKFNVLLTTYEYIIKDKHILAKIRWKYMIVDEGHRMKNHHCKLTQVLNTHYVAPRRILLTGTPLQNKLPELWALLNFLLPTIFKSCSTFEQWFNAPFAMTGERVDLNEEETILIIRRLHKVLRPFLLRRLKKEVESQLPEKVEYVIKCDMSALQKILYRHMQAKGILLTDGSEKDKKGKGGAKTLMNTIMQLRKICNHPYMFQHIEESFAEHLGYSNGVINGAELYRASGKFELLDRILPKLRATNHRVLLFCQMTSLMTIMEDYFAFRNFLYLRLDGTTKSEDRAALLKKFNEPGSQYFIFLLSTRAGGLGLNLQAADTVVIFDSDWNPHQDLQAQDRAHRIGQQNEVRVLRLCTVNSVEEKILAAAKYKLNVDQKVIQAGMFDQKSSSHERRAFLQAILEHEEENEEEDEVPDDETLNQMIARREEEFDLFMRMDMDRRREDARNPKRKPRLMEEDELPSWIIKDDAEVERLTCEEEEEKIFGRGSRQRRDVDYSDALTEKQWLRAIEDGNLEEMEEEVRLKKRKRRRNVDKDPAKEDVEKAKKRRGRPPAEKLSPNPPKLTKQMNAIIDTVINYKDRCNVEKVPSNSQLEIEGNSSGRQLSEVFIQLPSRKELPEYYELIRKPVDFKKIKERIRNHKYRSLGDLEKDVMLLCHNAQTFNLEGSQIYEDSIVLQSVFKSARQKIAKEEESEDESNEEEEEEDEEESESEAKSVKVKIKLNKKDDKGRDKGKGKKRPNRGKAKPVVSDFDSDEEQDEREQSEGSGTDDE

[16] = molecular target: T3, Polyadenylate-binding protein 1; assay: PABP1 MLLE–PAM2 binding inhibitor potency, dose response, biochemical, fluorescence polarization, FITC-PAM2 peptide (AID 602259); type: functional; details: read-out: IC50_Mean
[17] = molecular target: T4, Endoribonuclease toxin MazF (Escherichia coli K-12, UniProt P0AE70); assay: MazF toxin RNase activators, dose response, biochemical, fluorescence, single-stranded RNA substrate, uHTS hits (AID 588481); type: functional
T4 sequence (P0AE70 whole entry): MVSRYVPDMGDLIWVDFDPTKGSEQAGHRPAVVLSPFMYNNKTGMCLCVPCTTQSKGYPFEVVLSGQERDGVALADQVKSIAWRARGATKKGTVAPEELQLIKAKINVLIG

[18] = cells
[19] = molecular target: T4, Endoribonuclease toxin MazF; assay: fluorescent RNA oligo signal without MazF, dose response, counter-screen for MazEF activator project, biochemical, fluorescence, single-stranded RNase substrate (AID 588502); type: functional
[20] = MC4R antagonists, dose response, counter-screen for LGR2 antagonist project, cell-based, plate reader, cherry pick (AID 743444); type: functional;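 note: transfected HEK 293 cells stimulated with alpha-MSH peptide; potency of inhibitors of the alpha-MSH evoked signal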
[21] = cytotoxicity in HepG2 cells, dose response, cytotoxicity control, cell-based, cherry-picked samples (AID 1053183); type: functional
[22] = NIH:OVCAR-3 ovarian cancer cell cytotoxicity, dose response, PAX8 inhibitor project, plate reader, dry powder samples (AID 743044); type: functional, cell-based
[23] = HEK293 cell cytotoxicity, dose response, cytotoxicity control, plate reader, cherry-picked samples (AID 743446); type: functional, cell-based
[24] = cytotoxicity in A549 cells, dose response, cytotoxicity control, cell-based, cherry-picked samples (AID 1053184); type: functional
[25] = molecular target: Paired box protein Pax-8 (Homo sapiens, UniProt Q06710); assay: inhibitors of PAX8-driven TPO luciferase reporter, dose response, RMG-I cells, cherry-pick (AID 687027); type: functional, cell-based;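 note: luciferase reporter driven by Pax8 target thyroperoxidase promoter measured by SteadyGlo luminescence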
Paired box protein Pax-8, sequence (Q06710 whole entry): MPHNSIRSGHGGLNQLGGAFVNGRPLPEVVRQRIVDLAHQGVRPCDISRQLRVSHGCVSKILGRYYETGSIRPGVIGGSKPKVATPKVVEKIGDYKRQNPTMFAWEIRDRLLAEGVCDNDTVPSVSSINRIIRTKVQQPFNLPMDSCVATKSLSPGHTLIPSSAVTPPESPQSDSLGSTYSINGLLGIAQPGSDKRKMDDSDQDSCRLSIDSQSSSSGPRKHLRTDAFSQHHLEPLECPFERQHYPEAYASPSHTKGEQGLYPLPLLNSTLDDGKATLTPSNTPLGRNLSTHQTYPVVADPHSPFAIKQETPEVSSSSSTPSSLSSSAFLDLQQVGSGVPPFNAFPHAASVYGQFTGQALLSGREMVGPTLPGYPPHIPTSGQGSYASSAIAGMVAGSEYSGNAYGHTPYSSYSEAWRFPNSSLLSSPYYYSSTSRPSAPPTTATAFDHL

[26] = cytotoxicity in HEK293 cells, dose response, cytotoxicity control, cell-based, cherry-picked samples (AID 1053185); type: functional
[27] = IOSE-T80 ovarian epithelial cell cytotoxicity, dose response, cytotoxicity control for PAX8 inhibitor project, plate reader, dry powder samples (AID 743045); type: functional, cell-based
[28] = A549 cell cytotoxicity, dose response, cytotoxicity control, plate reader, cherry-pick, antagonist series (AID 743412); type: functional, cell-based
[29] = HepG2 cell cytotoxicity, dose response, cytotoxicity control, plate reader, cherry-pick, antagonist series (AID 743416); type: functional, cell-based
[30] = cytotoxicity in OVCAR8 ovarian cancer cells, dose response, PAX8 project, cell-based, plate reader, dry powder samples (AID 743197); type: functional; details: OVCAR-8
[31] = IGROV1 ovarian cancer cell cytotoxicity, dose response, PAX8 inhibitor project, plate reader, dry powder samples (AID 743043); type: functional, cell-based; details: IGROV-1
[32] = LGR2 antagonists, dose response, cell-based, HEK293, CRE-luciferase reporter, cherry pick, set 2 (AID 743343); type: functional;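 note: transfected cells were stimulated with diluted bursicon conditioned medium after compound addition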
[33] = molecular target: COUP transcription factor 2 (Homo sapiens, UniProt P24468); assay: Luminescence-based cell-based high throughput dose response assay to identify inhibitors of COUP-TFII (NR2F2).; type: functional;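 note: HEK293 cells transiently cotransfected with COUP-TFII expression vector and reporter; luciferase reporter luminescence driven by COUP-TFII from the pX2-168 reporter plasmid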
COUP transcription factor 2, sequence (P24468 whole entry): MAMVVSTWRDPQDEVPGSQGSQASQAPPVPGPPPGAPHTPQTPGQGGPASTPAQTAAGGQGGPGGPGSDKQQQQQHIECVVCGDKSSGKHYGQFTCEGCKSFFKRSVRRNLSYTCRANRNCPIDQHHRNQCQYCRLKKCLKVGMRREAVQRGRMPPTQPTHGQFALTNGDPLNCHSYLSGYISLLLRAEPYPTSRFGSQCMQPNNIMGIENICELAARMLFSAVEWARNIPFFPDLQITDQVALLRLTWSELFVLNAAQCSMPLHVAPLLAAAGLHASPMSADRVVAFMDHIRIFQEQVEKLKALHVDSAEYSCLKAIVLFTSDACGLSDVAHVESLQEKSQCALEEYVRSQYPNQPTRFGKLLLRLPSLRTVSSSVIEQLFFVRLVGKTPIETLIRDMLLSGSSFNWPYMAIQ

[34] = microbe, parasite or virus in culture; type: functional; details: Mycobacterium tuberculosis

COc1ccc(NC(=O)c2coc(=O)c(Br)c2)cc1
IC50 [1]: 8.2 µM (active) | IC50 [2]: 2.4 µM (active)

C=CCN1C(=S)CC(c2ccccc2)=Nc2ccccc21
AC50 [3]: > 52 µM (inactive) | AC50 [4]: 47.9 µM (active) | AC50 [5]: > 52 µM (inactive)

CC(C)NC(=O)Nc1ccc2c(c1)C(=O)N([C@@H](C)CO)C[C@H](C)[C@@H](CN(C)S(=O)(=O)c1ccc(Cl)cc1)O2
AC50 [6]: > 70 µM (inactive) | AC50 [7]: > 70 µM (inactive)

COc1ccccc1CN1CC[C@@H]2[C@@H](CO)Nc3ccc(C#Cc4ccccc4)cc3[C@@H]21
AC50 [8]: > 60 µM (inactive)

Cc1ccc(NC(=O)c2ccc3snnc3c2)cc1C
IC50 [9]: > 67.6 µM (inactive) | IC50 [10]: > 67.6 µM (inactive)

Cc1ccc(C(=O)NC2=C(c3ccc(OC(F)(F)F)cc3)C(=O)c3ccccc3C2=O)o1
AC50 [11]: 21.3 µM (active) | AC50 [12]: 33.4 µM (active)

Cn1sccc1=O
EC50 [13]: > 91.2 µM (inactive) | IC50 [14]: > 66 µM (inactive) | EC50 [15]: > 91.2 µM (inactive) | IC50 [16]: > 66 µM (inactive)

CCOC(=O)c1cc2c(=O)n3ccccc3nc2n(Cc2ccc(Cl)cc2)c1=N
EC50 [17]: > 99 µM (inactive) | AC50 [18]: 1.99 µM (active) | EC50 [19]: > 99 µM (inactive)

Cc1ccccc1S(=O)(=O)N1C[C@@H]2N[C@H](C1)[C@H]2c1ccc(-c2cccc(C#N)c2)cc1
AC50 [20]: 14.3 µM (active) | AC50 [21]: 31.9 µM (active) | AC50 [22]: 21.7 µM (active) | AC50 [23]: 20.4 µM (active) | AC50 [24]: 36.5 µM (active) | AC50 [25]: 3.75 µM (active) | AC50 [26]: 35.5 µM (active) | AC50 [27]: 51.4 µM (active) | AC50 [28]: 7.87 µM (active) | AC50 [29]: 9.35 µM (active) | AC50 [30]: 39.1 µM (active) | AC50 [31]: 20.5 µM (active) | AC50 [32]: 14.8 µM (active)

C/C(=N\NC(N)=S)C1C2C3CC4C5CC(C42)C1C53 (centres undefined)
IC50 [33]: 6.4 µM (active) | CC50 [34]: > 40 µM (active)

Source: ChEMBL document CHEMBL1201862, “PubChem BioAssay data set” (2004)
